# According to patent US20240102051A1, “MULTIFUNCTIONAL COPOLYMERIC NANOPARTICLE” (Iran University of Medical Sciences, priority 2021, published 2024):
# System: P. aeruginosa
# Assay: Antibacterial activity (MIC) against P. aeruginosa
# Assay type: cell-based, Pseudomonas aeruginosa
# Method: In this example, the antibacterial activity of exemplary multifunctional copolymeric nanoparticles against Gram-negative and Gram-positive strains, including P. aeruginosa, E. coli, S. aureus, and Enterococcus, were investigated based on their minimum bactericidal concentration (MBC) and minimum inhibitory concentration (MIC). Reaction time for synthesis of exemplary multifunctional copolymeric nanoparticles (AX) was varied from 1 hour to 72 hours to fine-tune the antibacterial activity of the exemplary multifunctional copolymeric nanoparticles. FIG. 11 illustrates a chart 1100 for the antibacterial activity of exemplary multifunctional copolymeric nanoparticles synthesized in different reaction times (1, 3, 8, 24, and 72 hours), consistent with one or more exemplary embodiments of the present disclosure.
substance,measurement,value
gentamicin,MIC,> 64 µg/mL
